*1 amine or outer side, *2 acyl side, *3 side chain or, on linkers, in order; H or OH if unused. Where a SMILES comes first, the peptide text is derived from it. Side-chain parts run from the residue outwards. [ ]: non-standard residue; d: D form. The star is where a group is joined. C18 diacid = O=C(O)CCCCCCCCCCCCCCCCC(=O)*; γGlu = O=C(O)[C@H](CCC(=O)[*:2])N[*:1]; Palmitoyl = CCCCCCCCCCCCCCCC(=O)*; AEEA = NCCOCCOCC(=O)O; Aib = CC(C)(N)C(=O)O
Key:
[1] = molecular target: human serum albumin (HSA) (Homo sapiens, UniProt P02768); test: Albumin binding affinity, competition scintillation proximity assay (SPA)
Experimental: Streptavidin-SPA beads (GE Healthcare RPNQ0009) were incubated with biotinylated HSA for 5 hours. The beads were washed with buffer to remove unbound HSA. […] After 20 hours of gentle rocking at room temperature the plates were centrifuged and counted on a TopCounter.

human GLP-1 receptor = molecular target: T1, human GLP-1 receptor (Homo sapiens, UniProt P43220); test: Stimulation of cAMP formation in a cell line expressing the cloned human GLP-1 receptor; type: biochemical; settings: cAMP production, purified plasma membranes from BHK467-12A (tk-ts13), AlphaScreen cAMP Assay Kit; read-out: Potency [EC50/nM]
T1 construct: expressed in transfected cells; host or cells: BHK467-12A (tk-ts13) baby hamster kidney cells; purified plasma membranes
T1 sequence (P43220 24-463): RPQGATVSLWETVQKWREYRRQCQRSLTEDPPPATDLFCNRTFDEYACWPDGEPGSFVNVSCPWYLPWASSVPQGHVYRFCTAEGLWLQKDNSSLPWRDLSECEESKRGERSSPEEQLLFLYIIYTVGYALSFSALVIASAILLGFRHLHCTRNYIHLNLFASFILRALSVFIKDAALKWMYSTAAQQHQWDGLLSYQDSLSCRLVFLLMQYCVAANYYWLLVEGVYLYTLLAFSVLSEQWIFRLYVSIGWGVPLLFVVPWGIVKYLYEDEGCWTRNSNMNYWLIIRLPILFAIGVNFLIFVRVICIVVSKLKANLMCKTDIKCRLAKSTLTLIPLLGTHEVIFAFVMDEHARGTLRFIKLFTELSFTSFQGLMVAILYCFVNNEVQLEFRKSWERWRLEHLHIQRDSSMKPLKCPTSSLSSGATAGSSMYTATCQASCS

Chain of human serum albumin (HSA) (P02768 25-609): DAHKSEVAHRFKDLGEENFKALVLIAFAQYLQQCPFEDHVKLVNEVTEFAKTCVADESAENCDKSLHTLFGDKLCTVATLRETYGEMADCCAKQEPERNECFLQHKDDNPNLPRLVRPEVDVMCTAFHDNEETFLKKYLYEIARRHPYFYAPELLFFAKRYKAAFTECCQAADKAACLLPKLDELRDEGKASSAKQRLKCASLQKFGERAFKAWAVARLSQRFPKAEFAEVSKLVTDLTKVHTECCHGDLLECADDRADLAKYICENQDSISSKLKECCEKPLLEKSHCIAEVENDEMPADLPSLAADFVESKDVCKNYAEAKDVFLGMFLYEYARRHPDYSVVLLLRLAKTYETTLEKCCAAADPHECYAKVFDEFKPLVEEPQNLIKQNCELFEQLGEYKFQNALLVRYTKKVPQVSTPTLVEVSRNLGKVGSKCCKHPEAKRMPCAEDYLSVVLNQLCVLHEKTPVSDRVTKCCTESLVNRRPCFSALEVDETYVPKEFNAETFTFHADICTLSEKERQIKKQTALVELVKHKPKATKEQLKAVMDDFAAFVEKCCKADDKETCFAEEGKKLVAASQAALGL

| Compound | EC50 [1] | EC50 (human GLP-1 receptor) |
| --- | --- | --- |
| CC[C@H](C)[C@H](NC(=O)[C@H](Cc1ccccc1)NC(=O)[C@H](CCC(=O)O)NC(=O)[C@H](CCCNC(=N)N)NC(=O)[C@H](C)NC(=O)[C@H](C)NC(=O)[C@H](CCC(N)=O)NC(=O)[C@H](CCC(=O)O)NC(=O)[C@H](CCC(=O)O)NC(=O)[C@H](CC(C)C)NC(=O)[C@H](Cc1ccc(O)cc1)NC(=O)[C@H](CO)NC(=O)[C@H](CO)NC(=O)[C@@H](NC(=O)[C@H](CC(=O)O)NC(=O)[C@H](CO)NC(=O)[C@@H](NC(=O)[C@H](Cc1ccccc1)NC(=O)[C@@H](NC(=O)CNC(=O)[C@H](CCC(=O)O)NC(=O)C(C)(C)NC(=O)[C@@H](N)Cc1c[nH]cn1)[C@@H](C)O)[C@@H](C)O)C(C)C)C(=O)N[C@@H](C)C(=O)N[C@@H](Cc1c[nH]c2ccccc12)C(=O)N[C@@H](CC(C)C)C(=O)N[C@H](C(=O)N[C@@H](CCCNC(=N)N)C(=O)NCC(=O)N[C@@H](CCCNC(=N)N)C(=O)N[C@@H](CCCCNC(=O)COCCOCCNC(=O)CC[C@H](NC(=O)CC[C@H](NC(=O)CCCCCCCCCCCNC(=O)CCCS(=O)(=O)NC(=O)CCCCCCCCCCCCCCCc1nnn[nH]1)C(=O)O)C(=O)O)C(N)=O)C(C)C [Example 12, N-epsilon37-[2-(2-{2-[(S)-4-Carboxy-4-((S)-4-carboxy-4-{12-[4-(16-(1H-tetrazol-5-yl)hexadecanoylsulfamoyl)butyrylamino]dodecanoylamino}butyrylamino)butyrylamino]ethoxy}ethoxy)acetyl][Aib8,Glu22,Arg26,Arg34,Lys37]GLP-1-(7-37)amide] | 800 to 1500 nM | 1.8 nM |
| CC[C@H](C)[C@H](NC(=O)[C@H](Cc1ccccc1)NC(=O)[C@H](CCC(=O)O)NC(=O)[C@H](CCCNC(=N)N)NC(=O)[C@H](C)NC(=O)[C@H](C)NC(=O)[C@H](CCC(N)=O)NC(=O)[C@H](CCC(=O)O)NC(=O)[C@H](CCC(=O)O)NC(=O)[C@H](CC(C)C)NC(=O)[C@H](Cc1ccc(O)cc1)NC(=O)[C@H](CO)NC(=O)[C@H](CO)NC(=O)[C@@H](NC(=O)[C@H](CC(=O)O)NC(=O)[C@H](CO)NC(=O)[C@@H](NC(=O)[C@H](Cc1ccccc1)NC(=O)[C@@H](NC(=O)CNC(=O)[C@H](CCC(=O)O)NC(=O)[C@H](C)NC(=O)CCc1c[nH]cn1)[C@@H](C)O)[C@@H](C)O)C(C)C)C(=O)N[C@@H](C)C(=O)N[C@@H](Cc1c[nH]c2ccccc12)C(=O)N[C@@H](CC(C)C)C(=O)N[C@H](C(=O)N[C@@H](CCCNC(=N)N)C(=O)NCC(=O)N[C@@H](CCCNC(=N)N)C(=O)N[C@@H](CCCCNC(=O)COCCOCCNC(=O)CC[C@H](NC(=O)CC[C@H](NC(=O)CCCCCCCCCCCNC(=O)CCCS(=O)(=O)NC(=O)CCCCCCCCCCCCCCCc1nnn[nH]1)C(=O)O)C(=O)O)C(N)=O)C(C)C [Example 13, N-epsilon37-[2-(2-{2-[(S)-4-Carboxy-4-((S)-4-carboxy-4-{12-[4-(16-(1H-tetrazol-5-yl)hexadecanoylsulfamoyl)butyrylamino]dodecanoylamino}butyrylamino)butyrylamino]ethoxy}ethoxy)acetyl][DesaminoHis7,Glu22,Arg26,Arg34,Lys37]GLP-1-(7-37)amide] | 100 to 150 nM | 1.97 nM |
| CCCCCCCCCCCCCCCC(=O)N[C@@H](CCC(=O)NCCOCCOCC(=O)NCCOCCOCC(=O)NCCCC[C@H](NC(=O)[C@H](CCCNC(=N)N)NC(=O)CNC(=O)[C@H](CCCNC(=N)N)NC(=O)[C@@H](NC(=O)[C@H](CC(C)C)NC(=O)[C@H](Cc1c[nH]c2ccccc12)NC(=O)[C@H](C)NC(=O)[C@@H](NC(=O)[C@H](Cc1ccccc1)NC(=O)[C@H](CCC(=O)O)NC(=O)[C@H](CCCNC(=N)N)NC(=O)[C@H](C)NC(=O)[C@H](C)NC(=O)[C@H](CCC(N)=O)NC(=O)[C@H](CCC(=O)O)NC(=O)[C@H](CCC(=O)O)NC(=O)[C@H](CC(C)C)NC(=O)[C@H](Cc1ccc(O)cc1)NC(=O)[C@H](CO)NC(=O)[C@H](CO)NC(=O)[C@@H](NC(=O)[C@H](CC(=O)O)NC(=O)[C@H](CO)NC(=O)[C@@H](NC(=O)[C@H](Cc1ccccc1)NC(=O)[C@@H](NC(=O)CNC(=O)[C@H](CCC(=O)O)NC(=O)[C@H](C)NC(=O)CCc1c[nH]cn1)[C@@H](C)O)[C@@H](C)O)C(C)C)[C@@H](C)CC)C(C)C)C(N)=O)C(=O)O [Example 18, N-epsilon37-{2-(2-(2-(2-[2-(2-(4-(hexadecanoylamino)-4-carboxybutyrylamino)ethoxy)ethoxy]acetyl)ethoxy)ethoxy)acetyl)}-[desaminoHis7,Glu22, Arg26,Arg34,Lys 37] (GLP-1-(7-37)amide] | > 2000 nM | 0.02 nM |
| CC[C@H](C)[C@H](NC(=O)[C@H](Cc1ccccc1)NC(=O)[C@H](CCC(=O)O)NC(=O)[C@H](CCCNC(=N)N)NC(=O)[C@H](C)NC(=O)[C@H](C)NC(=O)[C@H](CCC(N)=O)NC(=O)[C@H](CCC(=O)O)NC(=O)[C@H](CCC(=O)O)NC(=O)[C@H](CC(C)C)NC(=O)[C@H](Cc1ccc(O)cc1)NC(=O)[C@H](CO)NC(=O)[C@H](CO)NC(=O)[C@@H](NC(=O)[C@H](CC(=O)O)NC(=O)[C@H](CO)NC(=O)[C@@H](NC(=O)[C@H](Cc1ccccc1)NC(=O)[C@@H](NC(=O)CNC(=O)[C@H](CCC(=O)O)NC(=O)[C@H](C)NC(=O)CCc1c[nH]cn1)[C@@H](C)O)[C@@H](C)O)C(C)C)C(=O)N[C@@H](C)C(=O)N[C@@H](Cc1c[nH]c2ccccc12)C(=O)N[C@@H](CC(C)C)C(=O)N[C@H](C(=O)N[C@@H](CCCNC(=N)N)C(=O)NCC(=O)N[C@@H](CCCNC(=N)N)C(=O)N[C@@H](CCCCNC(=O)CCCS(=O)(=O)NC(=O)CCCCCCCCCCCCCCCc1nnn[nH]1)C(N)=O)C(C)C [Example 21, N-epsilon37-[4-(16-(1H-Tetrazol-5-yl)hexadecanoylsulfamoyl)butyryl][DesaminoHis7,Glu22,Arg26,Arg34,Lys37]GLP-1-(7-37)amide] | > 2000 nM | 1.27 nM |
| CC[C@H](C)[C@H](NC(=O)[C@H](Cc1ccccc1)NC(=O)[C@H](CCC(=O)O)NC(=O)[C@H](CCCNC(=N)N)NC(=O)[C@H](C)NC(=O)[C@H](C)NC(=O)[C@H](CCC(N)=O)NC(=O)[C@H](CCC(=O)O)NC(=O)[C@H](CCC(=O)O)NC(=O)[C@H](CC(C)C)NC(=O)[C@H](Cc1ccc(O)cc1)NC(=O)[C@H](CO)NC(=O)[C@H](CO)NC(=O)[C@@H](NC(=O)[C@H](CC(=O)O)NC(=O)[C@H](CO)NC(=O)[C@@H](NC(=O)[C@H](Cc1ccccc1)NC(=O)[C@@H](NC(=O)CNC(=O)[C@H](CCC(=O)O)NC(=O)[C@H](C)NC(=O)CCc1c[nH]cn1)[C@@H](C)O)[C@@H](C)O)C(C)C)C(=O)N[C@@H](C)C(=O)N[C@@H](Cc1c[nH]c2ccccc12)C(=O)N[C@@H](CC(C)C)C(=O)N[C@H](C(=O)N[C@@H](CCCNC(=N)N)C(=O)NCC(=O)N[C@@H](CCCNC(=N)N)C(=O)N[C@@H](CCCCNC(=O)COCCOCCNC(=O)COCCOCCNC(=O)CC[C@H](NC(=O)CCCCCCCCCCCCCCCCCCC(=O)O)C(=O)O)C(=O)O)C(C)C [Example 22, N-epsilon37-[2-(2-{2-[2-(2-{2-[(S)-4-Carboxy-4-(19-carboxynonadecanoylamino)butyrylamino]ethoxy}ethoxy)acetylamino]ethoxy}ethoxy)acetyl][DesaminoHis7,Glu22,Arg26,Arg34,Lys37]GLP-1-(7-37)] | 400 to 800 nM | 1.35 nM |
| CC[C@H](C)[C@H](NC(=O)[C@H](Cc1ccccc1)NC(=O)[C@H](CCC(=O)O)NC(=O)[C@H](CCCNC(=N)N)NC(=O)[C@H](C)NC(=O)[C@H](C)NC(=O)[C@H](CCC(N)=O)NC(=O)[C@H](CCC(=O)O)NC(=O)[C@H](CCC(=O)O)NC(=O)[C@H](CC(C)C)NC(=O)[C@H](Cc1ccc(O)cc1)NC(=O)[C@H](CO)NC(=O)[C@H](CO)NC(=O)[C@@H](NC(=O)[C@H](CC(=O)O)NC(=O)[C@H](CO)NC(=O)[C@@H](NC(=O)[C@H](Cc1ccccc1)NC(=O)[C@@H](NC(=O)CNC(=O)[C@H](CCC(=O)O)NC(=O)C(C)(C)NC(=O)[C@@H](N)Cc1c[nH]cn1)[C@@H](C)O)[C@@H](C)O)C(C)C)C(=O)N[C@@H](C)C(=O)N[C@@H](CCCCNC(=O)COCCOCCNC(=O)COCCOCCNC(=O)CC[C@H](NC(=O)CCCCCCCCCCCCCCCCC(=O)O)C(=O)O)C(=O)N[C@@H](CC(C)C)C(=O)N[C@H](C(=O)N[C@@H](CCCCN)C(=O)NCC(=O)N[C@@H](CCCNC(=N)N)C(=O)NCC(=O)O)C(C)C [Example 23, N-epsilon31-[2-(2-{2-[2-(2-{2-[4-Carboxy-4-(17-carboxy-heptadecanoylamino)butyrylamino]ethoxy}ethoxy)acetylamino]ethoxy}ethoxy)acetyl][Aib8,Glu22,Arg26,Lys31]GLP-1-(7-37)] (H-H[Aib]EGTFTSDVSSYLEEQAAREFIAK([AEEA-AEEA-γGlu-C18 diacid])LVKGRG-OH) | 1500 to 2000 nM | 0.02 nM |
| CCCCCCCCCCCCCCCC(=O)N[C@@H](CCC(=O)NCCOCCOCC(=O)NCCOCCOCC(=O)NCCCC[C@H](NC(=O)[C@H](Cc1ccc(O)cc1)NC(=O)[C@H](CO)NC(=O)[C@H](CO)NC(=O)[C@@H](NC(=O)[C@H](CC(=O)O)NC(=O)[C@H](CO)NC(=O)[C@@H](NC(=O)[C@H](Cc1ccccc1)NC(=O)[C@@H](NC(=O)CNC(=O)[C@H](CCC(=O)O)NC(=O)C(C)(C)NC(=O)[C@@H](N)Cc1c[nH]cn1)[C@@H](C)O)[C@@H](C)O)C(C)C)C(=O)N[C@@H](CCC(=O)O)C(=O)N[C@@H](CCC(=O)O)C(=O)N[C@@H](CCC(N)=O)C(=O)N[C@@H](C)C(=O)N[C@@H](C)C(=O)N[C@@H](CCCNC(=N)N)C(=O)N[C@@H](CCC(=O)O)C(=O)N[C@@H](Cc1ccccc1)C(=O)N[C@H](C(=O)N[C@@H](CCC(=O)O)C(=O)N[C@@H](Cc1c[nH]c2ccccc12)C(=O)N[C@@H](CC(C)C)C(=O)N[C@H](C(=O)N[C@@H](CCCCN)C(=O)NCC(=O)N[C@@H](CCCNC(=N)N)C(=O)N1CCC[C@H]1C(N)=O)C(C)C)[C@@H](C)CC)C(=O)O [Example 24, N-epsilon20-(2-{2-[2-(2-{2-[2-((S)-4-Carboxy-4-hexadecanoylamino-butyrylamino)ethoxy]ethoxy}acetylamino)ethoxy]ethoxy}-acetyl)[Aib8,Lys20,Glu22,Arg26,Glu30,Pro37]GLP-1-(7-37)amide] (H-H[Aib]EGTFTSDVSSYK([AEEA-AEEA-γGlu-Palmitoyl])EEQAAREFIEWLVKGRP-NH2) | 1500 to 2000 nM | 0.01 nM |

— US9409966B2, “Glucagon-like peptide-1 derivatives and their pharmaceutical use” (priority 2007, dated 2016)
